Measurements from patent US20020091158A1, “Composition for and method of treatment using triterpenoids” (priority 1999, published 2002).
Read-outs that look alike come from different tables or passages of the source.

Columns and labels:
[1] = cited from earlier work
KSHV latent antigens = test: Immunofluorescence assay of BC-3 cells for latent KSHV antigens; assay type: cell-based, Kaposi's sarcoma-associated herpesvirus (KSHV); conditions: 4 mM, stained with KS patient serum (panel C)
Protocol: Secondary antibody FITC-conjugated F(ab′)2 fragment of rabbit antihuman IgG (DAKO, Carpinteria, Calif.) diluted 1:40 in MB was applied. Cell nuclei were counterstained for 5 min, in PBS containing 17 μM Dapi (4′-6′-diamino-2′-phenyidole dihydrochloride [Boehringer Mannheim Corp., Indianapolis, Ind.]), rinsed in TBST, mounted with Vectashield (Vector Lab. Inc., Burlingame, Calif.) and examined in a fluorescence microscope Axioplan2 (Zeiss, Germany). BC-3 cells were run in parallel as controls.
In panel C the BC-3 cells have been treated with glycyrrhizic acid 4 mM and stained with KS patient serum. In panel D BC-3 cells have been treated with glycyrrhizic acid 4 mM and stained with Dapi to localize the nuclei. Kaposi's Sarcoma patient serum is used primary antibody to stain the KSHV latent antigens.

Human β-actin = test: Northern blot of β-actin as control for total cellular mRNA transcription; assay type: cell-based
Protocol: (§1) Total RNA was extracted using RNAzol B (Tel-Test Inc., Friendswood, Tex.) according to the manufacturer's instructions, and Poly A+RNA was selected with Poly A+ Tract kit (Promega, Madison, Wis.). To eliminate any contaminating DNA, the RNA samples were treated with 2 U RNAse free DNAse (Promega).
(§2) For Northern blot analysis, […] of each mRNA sample was electrophoresed in 1.5% formaldehyde agarose gel and then transferred to a Gene Screen nylon membrane (Du Pont, Boston, Mass.) overnight with 20×SSC. Filters were UV-cross-linked to fix the RNA and hybridized at 42° C. with probes obtained by PCR amplification of KSHV cyclin, v-FLIP and LANA (orf 73) genes (20) and labeled by ^32P random priming (Amersham Life Science, Buckinghamshire, England). Human β-actin probe was used as a quantitative control to measure the total mRNA. Membranes were washed twice at room temperature and twice at 65° C. then exposed.
(§3) On the left side are indicated the probes used. On the right side are indicated the size of the transcripts. All probes correspond to viral latent genes, except the human b actin which is used as a quantitative control to measure the transcription of total cellular mRNA.
(§4) Lane 6 is the positive control.

BC-2 cells = test: Effect on BC-2 cells growth curve (KSHV/EBV-infected); assay type: cell-based, human; conditions: 6 days
Protocol: (§5) The Glycyrrhizic acid (as ammonium salt supplied by Sigma) is dissolved in 25% of ethanol at 100 mM and adjusted to pH 6.8 with 1 N sodium hydroxide. The maximum inhibition activity with no effect on cell cycle is achieved with 4 mM, the dose-dependent range is within 2mM to 5mM.
(§6) BC-1 and BC-2 are cell lines established from two different HIV positive patients with non-Hodgkins lymphoma, specifically body cavity-based lymphomas. The cells are KSHV/EBV-infected and can be induced to enter lytic replication and viral production by treatment with TPA or with butyrate. These cells have an intact KSHV and EBV genomes and are ideal for KSHV and EBV isolation and study.(Cesarman, E. et al., Blood 1995 Oct.;86(7):2708-14.
(§7) The cells are treated for six days with alcohol 1%, glycyrrhizic acid 2 mM […], glycyrrhizic acid 3 mM and 4 mM in alcohol 0.5%, 0.75% and 1% respectively. After 6 days treatment cells growth decreased 50% using glycyrrhizic acid 2 mM and glycyrrhizic acid 3 mM. Cells growth decreased 80% using glycyrrhizic acid 4 mM.

BC-1 cells = test: Effect on BC-1 cells growth curve (KSHV/EBV-infected); assay type: cell-based, human; conditions: 6 days
Protocol: as §5, §6, §7

[2] = tested on: KSHV cyclin, v-FLIP and LANA (orf 73) genes; test: Northern blot of viral latent genes transcription in BC-3 cells; assay type: cell-based, Kaposi's sarcoma-associated herpesvirus (KSHV); conditions: for effect on the viral latent genes transcription: BC-3 cells, six days
Protocol: as §1, §2, §3, §4

BC-3 cells = test: Effect on BC-3 cells growth curve (latently KSHV-infected); assay type: cell-based, human
Protocol: as §5
BC-3 is a cell line established from a HIV negative patient with a primary effusion lymphoma. See Arvanitakis L, et al Establishment and characterization of a primary effusion (body cavity-based) lymphoma cell line (BC-3) harboring Kaposi's sarcoma-associated herpesvirus (KSHV/HHV-8) in the absence of Epstein-Barr virus. Blood 88:2648-2654, 1996. The cells are latently KSHV-infected, but lacks EBV, and can be induced to enter lytic replication and viral production by treatment with TPA or with butyrate. BC-3 has an intact KSHV genome and is suitable for the isolation and study of KSHV.
(§8) BJA-B is an Epstein-Barr virus (EBV)-negative lymphoblastoid cell line established from an African Burkift's lymphoma, KSHV negative cell line. See Menezes J, et al, Establishment and characterization of an Epstein-Barr virus (EBV)-negative lymphoblastoid B cell line (BJA-B) from an exceptional, EBV-genome-negative African Burkitt's lymphoma. Biomedicine 1975 Jul; 22 (4): 276-84. These cells are used as controls. Cells are cultured at concentration of 4×10^5/ml in RPMI with 20% of fetal calf serum in the presence or absence of different drug concentrations.
The cells are treated for six days with alcohol 0.5% and 1%, Glycyrrhizic acid 2 mM and 4 mM in alcohol 0.5% and 1% respectively. Cells growth is 50% inhibited by Glycyrrhizic acid 2 mM, while treatment with Glycyrrhizic acid 4 mM determines cell death.

BJAB cells = test: Effect on BJAB cells growth curve (KSHV negative control cells); assay type: cell-based, human; conditions: six days, 2 mM and 4 mM in alcohol 0.5% and 1%
Protocol: as §5, §8
Cells are treated for six days with alcohol 0.5% and 1%, Glycyrrhizic acid 2 mM and 4 mM in alcohol 0.5% and 1% respectively. Glycyrrhizic acid has no effect on the cells proliferation.

| Structure (SMILES) | solubility ([1]; ammonia water, ethanol, glacial acetic acid) | expression of latent viral antigens (KSHV latent antigens) | transcription of total cellular mRNA (b actin) (Human β-actin; BJA-B cells, six days, 2 mM and 4 mM (lanes 1-5)) | effect on cellular mRNA (β actin) (Human β-actin; all samples, BJA-B and BC-3) | solubility ([1]; hot water and alcohol) | cells growth decreased (BC-2 cells; 2 mM) | cells growth decreased (BC-2 cells; 3 mM) | cells growth decreased (BC-2 cells; 4 mM) | cells growth decreased (BC-1 cells; 2 mM) | cells growth decreased (BC-1 cells; 3 mM) | cells growth decreased (BC-1 cells; 4 mM) | concentration of maximum inhibition activity with no effect on cell cycle [2] | effect on the viral latent genes transcription ([2]; 2 mM (lane 7)) | effect on the viral latent genes transcription ([2]; 4 mM (lane 8)) | effect on cells growth (BC-3 cells; BC-3 cells, six days, 4 mM) | inhibition at 2000 µM (BC-3 cells; Homo sapiens, 144 h, BC-3 cells, six days, 2 mM, read-out: cells growth inhibited) | KSHV infected cells killed (BC-3 cells; six days after treatment) | effect on the cells proliferation (BJAB cells) |
| --- | --- | --- | --- | --- | --- | --- | --- | --- | --- | --- | --- | --- | --- | --- | --- | --- | --- | --- |
| CC1(C(=O)O)CCC2(C)CCC3(C)C(=CC(=O)C4C5(C)CCC(OC6OC(C(=O)O)C(O)C(O)C6OC6OC(C(=O)O)C(O)C(O)C6O)C(C)(C)C5CCC43C)C2C1.N.O.O.O.O.O (stereo not drawn) [Ammonium glycyrrhizinate pentahydrate] | soluble |  |  |  |  |  |  |  |  |  |  |  |  |  |  |  |  |  |
| CC1(C)[C@@H](O[C@H]2O[C@H](C(=O)O)[C@@H](O)[C@H](O)[C@H]2O[C@@H]2O[C@H](C(=O)O)[C@@H](O)[C@H](O)[C@H]2O)CC[C@]2(C)[C@H]3C(=O)C=C4[C@@H]5C[C@@](C)(C(=O)O)CC[C@]5(C)CC[C@@]4(C)[C@]3(C)CC[C@@H]12 [Glycyrrhizic acid] |  | inhibits the expression of latent viral antigens | not inhibited | does not have any effect | freely soluble | 50% | 50% | 80% | 50% | 50% | 80% | 4 mM | does not show any effect | almost totally inhibited | cell death | 50% | completely killed | no effect |
